Experimental data: patent US20260317367A1, “SALTS INCLUDING CRYSTALLINE SALTS OF 25-HYDROXY-CHOLEST-5-EN-3-SULFATE AND METHODS FOR PREPARING SAME” (Durect Corporation, priority 2022, published 2026)
“Also recorded” adds a separate entry of the source. Counter-ions that a name gives are not always drawn. Like-named read-outs stand apart in the source and are kept apart here. Values belong to the compound of their own block, whether it stands above or below them.

What was measured:
Format in all cases: physicochemical
[1] = Solid-state chemical stability of 25HC3S salts at 2-8° C., 60° C. and 80° C. (HPLC assay and degradation products); conditions: for % Impurities, Total / % Impurities, 25-HC: ND = Not Detected; for % Impurities, 25-HC: 25-Hydroxy-Cholesterol
Outline: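 Crystalline 25HC3S salts (~25 mg powder per vial) stored at 2-8° C. or 80° C., pulled at 3 and 6 weeks; some 3-week 2-8° C. vials moved to 60° C. for 1 week. Dissolved in 100% methanol (sonication/vortexing, centrifugation or dilution), then HPLC against 25HC3S sodium standards (0.75-1.25 mg/mL) for assay and degradants.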

[2] = Overall rank order of powder flowability (angle of repose and Hausner ratio); conditions: for Powder flowability, overall (in words): angle of repose and compressibility index/Hausner ratio combined; for Angle of Repose Rank Order / Hausner Ratio Rank Order / Overall Rank Order (Total Score): lower is better flow; for Overall Rank Order (Total Score): sum of both ranks
Source text: Table C5 was generated by adding the relative rank order of the 25HC3S salts for angle of repose and Hausner ratio results, and creating an Over All Rank Order of the salts powder flowability. The salts with the lower overall rank order score had better powder flowability.

[3] = Angle of repose of 25HC3S salts
Outline: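 About 2 g of salt powder was poured through a 7 mm inner-diameter tube into a 21.14 mm rubber O-ring, forming a cone of fixed diameter. Cone height was measured with calipers and the angle of repose was calculated from it. Flow was classified per USP<1174>.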

[4] = Final pH of the solubility sample solutions in aqueous media; conditions: for pH of the solubility sample, 0.9% Sodium Chloride: 0.9% sodium chloride (blank 5.8); for pH of the solubility sample, 5% Dextrose: 5% dextrose (blank 4.7); for pH of the solubility sample, FaSSGF: FaSSGF (blank 1.5, 1.6); for pH of the solubility sample, FaSSIF: FaSSIF (blank 6.5, 6.5); for pH of the solubility sample, FeSSIF: FeSSIF (blank 4.9, 5.0); for pH of the solubility sample, Water: water (blank 6.3)
Outline: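 Undiluted HPLC assay of centrifuged (12000 rpm, 12–15 min) supernatants from aqueous 25HC3S salt suspensions. These suspensions were kept with excess solid and shaken one day at room temperature, 210 motions/min.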

[5] = Solubility of 25HC3S salts after one day at room temperature (HPLC, as free acid); conditions: one day; for Solubility in FaSSGF: Fasted State Simulated Gastric Fluid, pH 1.6, room temperature, LOD 0.0007 mg/mL; for Solubility in FaSSGF / solubility at 24 h: as free acid; for Solubility in methanol (in words): MeOH
Outline: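 HPLC quantified the clear supernatant after centrifugation, with organic-solvent samples diluted in water:MeOH 95:5 and aqueous ones undiluted; results are mg/mL as free acid (LOD 0.0007 mg/mL). Each salt was first equilibrated as a suspension with excess solid for one day on a room-temperature shaker.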

[6] = Appearance (color, clumping, flowability) of stored 25HC3S salts
[7] = 2-8° C., 3 wk, listed as 25HC3S magnesium
[8] = 60° C., 1 week, listed as 25HC3S Magnesium
[9] = 80° C., 3 weeks, listed as 25HC3S Magnesium
[10] = 80° C., 3 wk, listed as 25HC3S magnesium
[11] = room temperature, listed as crystalline 25HC3S magnesium

Assay ([1]; 2-8° C., 3 wk, 30240 min, listed as 25HC3S magnesium): 90.8 % w/w
% Impurities, Total [1, 7]: 1.6%
Overall physical and chemical stability (in words) ([1]; 2-8° C., 60° C., 80° C.): least physically and chemically stable
Overall physical and chemical stability (in words) ([1]; 2-8° C., 60° C., 80° C., listed as magnesium): least stable
% Impurities, 25-HC [1, 7]: 0.3%
Physical and chemical solid-state stability (comments) [1, 8]: Totally decomposed after 1 week at 60 °C
Assay ([1]; 60° C., 1 wk (after 3 weeks at 2-8° C.), 10080 min, listed as 25HC3S magnesium, 10080 min): 0.0 % w/w
% Recovery of 2-8° C./3 wk vs 60° C./1 wk ([1]; 60° C., 1 wk, 10080 min, listed as 25HC3S magnesium): 0.0%
% Recovery ([1]; 80° C., 3 wk, vs 2-8° C., 30240 min, listed as 25HC3S magnesium, 30240 min): 0.0%
Assay ([1]; 80° C., 3 wk, 30240 min, listed as 25HC3S magnesium): 0.0 % w/w
% Impurities, Total [1, 10]: 100%
Stability after 1 week at 60° C. (in words) ([1]; solid state, 60° C., 1 week (after 3 weeks at 2-8° C.)): totally decomposed
Stability after 3 weeks at 80° C. (in words) ([1]; solid state, 80° C., 3 weeks): totally decomposed
Powder flowability, overall (in words) ([2]; listed as magnesium): poorer flowability
Angle of Repose Rank Order ([2]; listed as 25HC3S magnesium): 7
Hausner Ratio Rank Order ([2]; listed as 25HC3S magnesium): 14
Overall Rank Order (Total Score) ([2]; listed as 25HC3S magnesium): 21
Flow Property per USP<1174> Powder Flow ([3]; classification by angle of repose, listed as 25HC3S magnesium): Fair - aid not needed
Angle of Repose ([3]; listed as 25HC3S magnesium): 37.7 degrees
Angle of Repose, Rounded Whole Number ([3]; listed as 25HC3S magnesium): 38 degrees
pH of the solubility sample, 0.9% Sodium Chloride ([4]; listed as 25HC3S magnesium): 8.3
pH of the solubility sample, 5% Dextrose ([4]; listed as 25HC3S magnesium): 7.1
pH of the solubility sample, FaSSGF [4]: 1.6
pH of the solubility sample, FaSSIF ([4]; listed as 25HC3S magnesium): 6.5
pH of the solubility sample, FeSSIF ([4]; listed as 25HC3S magnesium): 4.9
pH of the solubility sample, Water ([4]; listed as 25HC3S magnesium): 8.7
Solubility in ethanol (in words) ([5]; EtOH, room temperature): did not reach saturation
Solubility in FaSSGF (in words) [5, 11]: low solubility
Solubility in FaSSGF [5]: no solubilized drug was detected
Solubility in methanol (in words) ([5]; room temperature): did not reach saturation
Solubility in methanol (in words) [5, 11]: relatively high solubility
Solubility in saline / 0.9% sodium chloride (in words) ([5]; saline, room temperature, listed as crystalline 25HC3S magnesium): low solubility
Appearance [6, 7]: White, free flowing powder, no clumping
Appearance ([6]; 60° C., 1 wk (after 3 weeks at 2-8° C.), listed as 25HC3S magnesium): Brown, melted material stuck to bottom
Appearance after 3 weeks at 80° C. ([6]; 80° C., 3 weeks): completely burned
Appearance [6, 10]: Dark brown, melted material stuck to
Compound: CC(CCCC(C)(C)O)C1CCC2C3CC=C4CC(OS(=O)(=O)O)CCC4(C)C3CCC12C (stereo not shown) [Salt #13]
dissolution of decomposed samples in diluent / degradants observed (comments) [1, 8]: decomposed samples at 60 °C after 1 week did not dissolve in the diluent,; also recorded: therefore, no degradants were observed. However, the decomposed
Physical and chemical solid-state stability (comments) [1, 9]: Totally decomposed after 1 week at 60 °C and after 3 weeks at 80 °C
dissolution of decomposed samples in diluent / degradants observed (comments) [1, 9]: samples at 80 °C after 3 weeks may have dissolved slightly in the diluent,; also recorded: therefore, degradation products were observed

% Impurities, Total ([1]; 2-8° C., 3 wk): 3.2%
% Impurities, Total ([1]; 2-8° C., 5 wk): 2.4%
Overall physical and chemical stability (in words) ([1]; 2-8° C., 60° C., 80° C.): physically and chemically stable
Overall physical and chemical stability (in words) ([1]; 2-8° C., 60° C., 80° C., listed as lysine): relatively stable
% Impurities, 25-HC ([1]; 2-8° C., 3 wk): 0.3%
% Impurities, 25-HC ([1]; 2-8° C., 5 wk): 0.3%
% Impurities, 25-HC ([1]; 80° C., 3 wk): 0.3%
% Impurities, 25-HC ([1]; 80° C., 5 wk): 0.3%
Stressed stability at 80° C. (in words) ([1]; 80° C.): good, stressed stability
% Impurities, Total ([1]; 80° C., 3 wk): 3.7%
% Impurities, Total ([1]; 80° C., 5 wk): 3.1%
remaining at 504 h ([1]; solid state, 2-8° C., 3 wk, read-out: Assay): 91.5%
remaining at 840 h ([1]; solid state, 2-8° C., 5 wk, read-out: Assay): 94.2%
remaining at 504 h ([1]; solid state, 80° C., 3 wk, vs 2-8° C., read-out: % Recovery): 101%
remaining at 504 h ([1]; solid state, 80° C., 3 wk, read-out: Assay): 92.8%
Stability after 5 weeks at 80° C. (in words) ([1]; solid state, 80° C., 5 weeks): stable
remaining at 840 h ([1]; solid state, 80° C., 5 wk, read-out: % Recovery, 2-8° C./5 wk vs 80° C./5 wk): 103%
remaining at 840 h ([1]; solid state, 80° C., 5 wk, read-out: Assay): 96.9%
Powder flowability, overall (in words) ([2]; listed as crystalline 25HC3S lysine): relatively good flowability
Powder flowability, overall (in words) ([2]; listed as lysine): top three
Angle of Repose Rank Order [2]: 2
Hausner Ratio Rank Order [2]: 2
Overall Rank Order (Total Score) [2]: 4
Angle of Repose [3]: 25.7 degrees
Angle of Repose, Rounded Whole Number [3]: 26 degrees
pH of the solubility sample, 0.9% Sodium Chloride [4]: 8.4
pH of the solubility sample, 5% Dextrose [4]: 7.5
pH of solubility sample solution in 5% dextrose ([4]; 5% dextrose (medium pH 4.7)): 7.5
pH of the solubility sample, FaSSGF [4]: 1.6
pH of the solubility sample, FaSSIF [4]: 6.5
pH of the solubility sample, FeSSIF [4]: 5.0
pH of the solubility sample, Water [4]: 8.8
solubility at 24 h ([5]; 0.9% nacl, room temperature, ND = not detected, detection limit 0.7 μg/mL, read-out: Solubility in 0.9% NaCl): 8 µg/mL
solubility at 24 h ([5]; 5% dextrose, room temperature, ND = not detected, detection limit 0.7 μg/mL, read-out: Solubility in 5% Dextrose): 38 µg/mL
Solubility in FaSSGF (in words) ([5]; room temperature): low solubility
Solubility in FaSSGF [5]: no solubilized drug was detected
solubility at 24 h ([5]; acetonitrile, organic solvent or mixture, acetonitrile, room temperature, read-out: Solubility in ACN): 800 µg/mL
solubility at 24 h ([5]; ethanol, organic solvent or mixture, ethanol, room temperature, ≥ = did not reach saturation, read-out: Solubility in EtOH): 1700 µg/mL
solubility at 24 h ([5]; fassif, room temperature, read-out: Solubility in FaSSIF): 72 µg/mL
solubility at 24 h ([5]; fessif, room temperature, read-out: Solubility in FeSSIF): 676 µg/mL
solubility at 24 h ([5]; isopropyl alcohol, organic solvent or mixture, isopropyl alcohol, room temperature, read-out: Solubility in IPA): 900 µg/mL
solubility at 24 h ([5]; methanol, organic solvent or mixture, methanol, room temperature, ≥ = did not reach saturation, read-out: Solubility in MeOH): 5900 µg/mL
solubility at 24 h ([5]; water, room temperature, ND = not detected, detection limit 0.7 μg/mL, read-out: Solubility in H2O): 40 µg/mL
Appearance ([6]; 2-8° C., 3 wk): White, free flowing powder with clumping
Appearance ([6]; 2-8° C., 5 wk): White, free flowing powder with clumping
Compound: C[C@H](CCCC(C)(C)O)[C@H]1CC[C@H]2[C@@H]3CC=C4C[C@@H](OS(=O)(=O)O)CC[C@]4(C)[C@H]3CC[C@]12C [Salt #14]
Physical and chemical solid-state stability (comments) ([1]; 80° C., 5 weeks): Stable after 5 weeks at 80 °C physically and chemically.
